These results are taken from patent US20250215029A1 (Recludix Pharma, Inc., priority 2022, published 2025).

For the first assay, the target named is T1, pY705-STAT3 in PBMC (Homo sapiens, UniProt P40763).
T1 construct: Cryopreserved Peripheral Blood Mononuclear Cells (PBMC) are from AllCells; host or cells: cryopreserved PBMC
T1 sequence (P40763 whole entry): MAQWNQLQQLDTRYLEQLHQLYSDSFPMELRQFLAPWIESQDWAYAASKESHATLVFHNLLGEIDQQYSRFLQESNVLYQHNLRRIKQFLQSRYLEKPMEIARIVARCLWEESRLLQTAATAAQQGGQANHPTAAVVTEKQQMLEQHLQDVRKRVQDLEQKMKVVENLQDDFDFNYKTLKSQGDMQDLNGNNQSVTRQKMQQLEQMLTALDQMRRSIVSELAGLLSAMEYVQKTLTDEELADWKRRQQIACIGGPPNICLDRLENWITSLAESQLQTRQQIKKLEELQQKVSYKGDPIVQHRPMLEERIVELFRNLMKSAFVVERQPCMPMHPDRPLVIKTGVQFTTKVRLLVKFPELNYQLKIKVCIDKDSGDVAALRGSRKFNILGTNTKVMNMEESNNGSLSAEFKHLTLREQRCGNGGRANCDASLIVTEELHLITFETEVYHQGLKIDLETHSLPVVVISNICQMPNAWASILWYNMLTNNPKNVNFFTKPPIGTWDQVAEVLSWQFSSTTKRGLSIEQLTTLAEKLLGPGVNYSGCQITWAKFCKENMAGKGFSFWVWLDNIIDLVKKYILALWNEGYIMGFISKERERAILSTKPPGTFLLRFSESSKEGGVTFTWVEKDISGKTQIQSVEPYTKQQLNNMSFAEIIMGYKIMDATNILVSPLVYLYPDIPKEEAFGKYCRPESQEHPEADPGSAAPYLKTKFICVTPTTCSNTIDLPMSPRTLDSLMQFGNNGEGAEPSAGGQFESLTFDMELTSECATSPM
Kind of assay: MSD-pSTAT-PBMC Assay (pSTAT3, IL-6 stimulated). It is filed as cell-based. The note with it: PBMC, compound 3 hrs, then 10 ng/mL IL-6 for 10 min; Table 115; read-out: STAT3. The procedure, abridged:
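MSD electrochemiluminescence read-out: total STAT captured, probed with anti-pY641-STAT6 or anti-pY705-STAT3. Human PBMC, 3 h compound pretreatment, 10 min stimulation (IL-4 1 ng/mL or IL-6 10 ng/mL). Unstimulated signal subtracted, DMSO-normalized, variable-slope IC50.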
As to `CC(C)OC(=O)OCOP(=O)(Cc1ccc2[nH]c(C(=O)N[C@H]3CCC[C@H]4CC[C@@H](C(=O)N5CC(c6cccnc6)C5)N4C3=O)cc2c1)OCOC(=O)OC(C)C` [Compound 965, diisopropyl (((((2-(((3S,6S,9aS)-5-oxo-3-(3-(pyridin-3-yl)azetidine-1-carbonyl)octahydro-1H-pyrrolo[1,2-a]azepin-6-yl)carbamoyl)-1H-indol-5-yl)methyl)phosphoryl)bis(oxy))bis (methylene)) bis(carbonate)], the IC50 was in the range of 0.1 to 1 µM.

Consider `CCCOC(=O)CNP(=O)(Cc1ccc2sc(C(=O)N[C@H]3CCC[C@H]4CC[C@@H](C(=O)N5CC(c6cccnc6)C5)N4C3=O)cc2c1)Oc1ccccc1` (stereo partly drawn) [Compound 264, propyl (((2-(((3S,6S,9aS)-5-oxo-3-(3-(pyridin-3-yl)azetidine-1-carbonyl)octahydro-1H-pyrrolo[1,2-a]azepin-6-yl)carbamoyl)benzo [b]thiophen-5-yl)methyl)(phenoxy)phosphoryl)glycinate], for which the IC50 lay within 0.1 to 1 µM.

As to `COCCOC(=O)[C@H](C)NP(=O)(Cc1ccc2sc(C(=O)N[C@H]3CCC[C@H]4CC[C@@H](C(=O)N5CC(c6cccnc6)C5)N4C3=O)cc2c1)Oc1ccccc1` (stereo partly drawn) [Compound 393, 2-methoxyethyl (((2-(((3S,6S,9aS)-5-oxo-3-(3-(pyridin-3-yl)azetidine-1-carbonyl)octahydro-1H-pyrrolo[1,2-a]azepin-6-yl)carbamoyl)benzo [b]thiophen-5-yl)methyl)(phenoxy)phosphoryl)-L-alaninate], the IC50 lay in the range of 0.1 to 1 µM. `C[C@H](NP(=O)(Cc1ccc2sc(C(=O)N[C@H]3CCC[C@H]4CC[C@@H](C(=O)N5CC(c6cccnc6)C5)N4C3=O)cc2c1)Oc1ccccc1)C(=O)OCCC(F)(F)F` (stereo partly drawn) [Compound 291, 3,3,3-trifluoropropyl (((2-(((3S,6S,9aS)-5-oxo-3-(3-(pyridin-3-yl)azetidine-1-carbonyl)octahydro-1H-pyrrolo[1,2-a]azepin-6-yl)carbamoyl)benzo [b]thiophen-5-yl)methyl)(phenoxy)phosphoryl)-L-alaninate]: the IC50 is less than 0.1 µM. Turning to `CCCOC(=O)[C@H](C)NP(=O)(Cc1ccc2sc(C(=O)N[C@H]3CCC[C@H]4CC[C@@H](C(=O)N5CC(c6nccc(C#N)n6)C5)N4C3=O)cc2c1)Oc1ccccc1` (stereo partly drawn) [Compound 290, propyl (((2-(((3S,6S,9aS)-3-(3-(4-cyanopyrimidin-2-yl)azetidine-1-carbonyl)-5-oxooctahydro-1H-pyrrolo[1,2-a]azepin-6-yl)carbamoyl)benzo [b]thiophen-5-yl)methyl)(phenoxy)phosphoryl)-L-alaninate], the IC50 was in the range of 0.1 to 1 µM. On to `CCCOC(=O)[C@H](C)NP(=O)(Cc1ccc2sc(C(=O)N[C@H]3CCC[C@H]4CC[C@@H](C(=O)N5CC(c6cnccc6N6CC(OC)C6)C5)N4C3=O)cc2c1)Oc1ccccc1` (stereo partly drawn) [Compound 300, propyl (((2-(((3S,6S,9aS)-3-(3-(4-(3-methoxyazetidin-1-yl)pyridin-3-yl)azetidine-1-carbonyl)-5-oxooctahydro-1H-pyrrolo[1,2-aJazepin-6-yl)carbamoyl)benzo [b]thiophen-5-yl)methyl)(phenoxy)phosphoryl)-L-alaninate], for which the IC50 was less than 0.1 µM. In the case of `COc1ccncc1C1CN(C(=O)[C@@H]2CC[C@@H]3CCC[C@H](NC(=O)c4cc5cc([C@H](F)[P@@](=O)(N[C@@H](C)C(=O)OCc6ccccc6)Oc6ccccc6)ccc5s4)C(=O)N32)C1` (single isomer, unassigned) [Compound 1050], the IC50 was 0.1 to 1 µM. On the same count and under the same terms, the figure for `CCCOC(=O)[C@H](C)N[P@@](=O)(Oc1ccccc1)[C@H](F)c1ccc2sc(C(=O)N[C@H]3CCC[C@H]4CC[C@@H](C(=O)N5CC(c6cnccc6C)C5)N4C3=O)cc2c1` (single isomer, unassigned) [Compound 1049] is less than 0.1 µM.

As for `CCCCOC(=O)[C@H](C)NP(=O)(Oc1cccc2ccccc12)C(F)(F)c1ccc2sc(C(=O)N[C@H]3CCC[C@H]4CC[C@@H](C(=O)N5CC(c6cccnc6)C5)N4C3=O)cc2c1` (stereo partly drawn) [Compound 971, butyl ((difluoro(2-(((3S,6S,9aS)-5-oxo-3-(3-(pyridin-3-yl)azetidine-1-carbonyl)octahydro-1H-pyrrolo[1,2-a]azepin-6-yl)carbamoyl)benzo [b]thiophen-5-yl)methyl) (naphthalen-1-yloxy)phosphoryl)-L-alaninate], the IC50 fell in the range of 1 to 3 µM. Still for that read-out and setting: the figure for `CC(C)(C)C(=O)SCCOP(=O)(OCCSC(=O)C(C)(C)C)C(F)(F)c1ccc2sc(C(=O)N[C@H]3CCCC[C@H]4CC[C@@H](C(=O)NCc5cnc6[nH]cnc6c5)N4C3=O)cc2c1` [Compound 1005, S,S′-(((((2-(((3S,6S,10aS)-3-(((3H-imidazo[4,5-b]pyridin-6-yl)methyl)carbamoyl)-5-oxodecahydropyrrolo [1,2-a]azocin-6-yl)carbamoyl)benzo [b]thiophen-5-yl)difluoromethyl)phosphoryl)bis(oxy))bis(ethane-2,1-diyl)) bis(2,2-dimethyl-propanethioate)] is less than 0.1 µM; for `CC(C)OC(=O)[C@H](C)NP(=O)(Cc1ccc2sc(C(=O)N[C@H]3CCC[C@H]4CC[C@@H](C(=O)N5CC(c6cccnc6)C5)N4C3=O)cc2c1)N[C@@H](C)C(=O)OC(C)C` [Compound 399, diisopropyl 2,2′-((((2-(((3S,6S,9aS)-5-oxo-3-(3-(pyridin-3-yl)azetidine-1-carbonyl)octahydro-1H-pyrrolo[1,2-a]azepin-6-yl)carbamoyl)benzo [b]thiophen-5-yl)methyl)phosphoryl)bis(azanediyl)) (2S,2′S)-dipropionate] it is 1 to 3 µM. Still for that read-out and setting: the figure for `CCCOC(=O)[C@H](C)NP(=O)(Cc1ccc2sc(C(=O)N[C@H]3CCC[C@H]4CC[C@@H](C(=O)N5CC(c6cncnc6N(C)C)C5)N4C3=O)cc2c1)Oc1ccccc1` (stereo partly drawn) [Compound 1070, propyl (((2-(((3S,6S,9aS)-3-(3-(4-(dimethylamino)pyrimidin-5-yl)azetidine-1-carbonyl)-5-oxooctahydro-1H-pyrrolo[1,2-a]azepin-6-yl)carbamoyl)benzo [b]thiophen-5-yl)methyl)(phenoxy)phosphoryl)-L-alaninate] is less than 0.1 µM.

The same assay, now with this note: STAT3, PBMC, compound 3 hrs, then 10 ng/mL IL-6 for 10 min; Table 115.
In the case of `CCCOC(=O)[C@H](C)NP(=O)(Cc1ccc2sc(C(=O)N[C@H]3CCC[C@H]4CC[C@@H](C(=O)N5CC(c6cnc(C(F)F)cc6OC)C5)N4C3=O)cc2c1)Oc1ccccc1` (stereo partly drawn) [Compound 991, propyl (((2-(((3S,6S,9aS)-3-(3-(6-(difluoromethyl)-4-methoxypyridin-3-yl)azetidine-1-carbonyl)-5-oxooctahydro-1H-pyrrolo[1,2-a]azepin-6-yl)carbamoyl)benzo [b]thiophen-5-yl)methyl)(phenoxy)phosphoryl)-L-alaninate], the IC50 was more than 3 µM.

On to `CCCCOC(=O)[C@@H]1CC(F)(F)CN1P(=O)(Cc1ccc2sc(C(=O)N[C@H]3CCC[C@H]4CC[C@@H](C(=O)N5CC(c6cccnc6)C5)N4C3=O)cc2c1)Oc1ccccc1` (stereo partly drawn) [Compound 295, butyl (2S)-4,4-difluoro-1-(((2-(((3S,6S,9aS)-5-oxo-3-(3-(pyridin-3-yl)azetidine-1-carbonyl)octahydro-1H-pyrrolo[1,2-a]azepin-6-yl)carbamoyl)benzo [b]thiophen-5-yl)methyl)(phenoxy)phosphoryl) pyrrolidine-2-carboxylate], for which the IC50 lay in the range of 1 to 3 µM.
